Measurements as given in patent US20260083703A1, “INDOLINE DERIVATIVES AS SEROTONERGIC AGENTS USEFUL FOR THE TREATMENT OF DISORDERS RELATED THERETO” (MINDSET PHARMA INC., priority 2022, published 2026).
Values joined by “and” are separate entries in the source; they are usually repeats but may differ in a detail not shown here. Equal entries are not always repeated.

What was measured:
[1] = Liver microsomes stability, human; settings: human; for CLint scaled at 2 μM / half-life at 2 μM / microsomal CLint at 2 μM: pooled human liver microsomes
[2] = Liver microsomes stability, mouse; settings: for CLint scaled at 2 μM / half-life at 2 μM / microsomal CLint at 2 μM: male, microsomes
[3] = biological target: T1, human 5-HT2A (h5-HT2A) receptor (Homo sapiens, UniProt P28223); experiment: FLIPR assay, human 5-HT2A, agonist mode; assay type: cell-based
T1 construct: expressed in transfected cells; grown under G418 and hygromycin B selection
T1 sequence (P28223 whole entry): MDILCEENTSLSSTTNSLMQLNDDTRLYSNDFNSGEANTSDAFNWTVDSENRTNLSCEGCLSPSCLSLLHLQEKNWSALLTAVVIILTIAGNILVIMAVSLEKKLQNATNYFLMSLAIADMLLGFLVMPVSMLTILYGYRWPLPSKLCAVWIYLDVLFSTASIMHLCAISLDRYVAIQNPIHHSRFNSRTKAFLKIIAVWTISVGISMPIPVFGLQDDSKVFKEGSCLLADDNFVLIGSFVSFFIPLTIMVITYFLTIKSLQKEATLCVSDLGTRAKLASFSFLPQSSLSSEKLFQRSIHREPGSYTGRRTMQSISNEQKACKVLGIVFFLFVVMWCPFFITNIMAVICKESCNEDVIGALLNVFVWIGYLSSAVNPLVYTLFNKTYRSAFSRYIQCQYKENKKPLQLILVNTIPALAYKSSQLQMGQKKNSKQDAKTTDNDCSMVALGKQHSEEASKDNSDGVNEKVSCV
Experimental: I. Assessment of the Effect of Exemplary Compounds of Formula I Targeting on Human 5-HT2A (h5-HT2A) Receptor Under Agonist Mode:
I.c. Experimental Methods and Procedures: • 1. Cells were cultured in cell culture medium (DMEM containing 10% FBS, 1×penicillin-streptomycin 300 μg/ml G418 and 100 μg/ml hygromycin B) at 37° C., 5% (v/v) CO2. • 2. One day before the assays, the cells were detached using TrypLE™ Express and cells were counted using cell counter. Only cells with >85% viability were used for the assay. • 3. 20000 cells/well were seeded in 30 μl/well culture medium to a 384-well cell plate and cells were incubated overnight at 37° C., 5% (v/v) CO2. • 4. On the assay day, 2×dye solution was prepared following the manual of the FLIPR® Calcium 6 Assay Kit: i. The dye was diluted with assay buffer (20 mM HEPES in 1×HBSS, PH7.4); ii. Probenecid was added to the final concentration of 5 mM; iii. Vortex vigorously for 1-2 minutes. • 5. Medium was removed from cell plate by flicking the cell plate on towel papers. • 6. 10 μl of assay buffer and 10 μl of 2×dye solution was added to each well of the cell plate. • 7. The cell plate was placed on plate shaker, the plate was agitated at 600 rpm for 2 minutes. The plate was incubated at 37° C. for 2 hours followed by additional 15-minute incubation at 25° C. • 8. 3×compound in assay buffer was prepared: a. Reference compounds were diluted to required concentration with DMSO. The compounds were added to a 384-well compound plate; b. Serial dilutions were performed; c. 10 mM test compounds were added to the compound plate, and 3-fold serial dilutions were performed. d. Transfer 60 nl/well of compounds from source plate to a 384-well compound plate (Corning, 3657) by using an Echo; e. Add 20 μl/well assay buffer to the compound plate; f. Mix the plate on plate shaker for 2 mins; • 9. The cell plate, compound plate and tips were put into FLIPR, 10 μl of 3× compound was transferred to the cell plate per well with FLIPR.
• i. The normalized fluorescence reading (RFU) was calculated as shown below, where Fmax and Fmin stand for maximum and minimum of calcium signal during defined time window: RFU=Fmax−Fmin. • ii. Calculate the percentage activation using following equation:
[formula] • Iii. Calculate EC50 by fitting % activation against log of compound concentrations with Hill equation using XLfit.

[4] = Liver microsomes stability, rat; settings: for CLint scaled at 2 μM / half-life at 2 μM / microsomal CLint at 2 μM: rat liver microsomes
Male, C57BL/6J mice = experiment: Mouse head twitch; assay type: in vivo
Experimental: The effect of different doses of representative compounds of Formula I are evaluated on head-twitch response (HTR) and other behavioural responses as behavior-based models of psychedelic activity.
Male, C57BL/6J mice (body weight range 20-30 g) were dosed with the appropriate dose of test article, and following a 1-minute pre-treatment time, placed in individual observation chambers. Animals were visually assessed for the incidence head twitches continuously over a 1 hr period. Head twitches were defined as a rapid jerk of the head which was not elicited by an external tactile stimulus (Come and Pickering, Psychopharmacologia, 1967, 11(1): 65-78). Each head twitch was individually counted by a trained observer, and the data expressed as the mean±SEM of 6-10 mice per group. Mice were used in a single experiment only.

CN1CCC[C@@H]1C[C@H]1CNc2ccc(F)cc21 [(R),(R)-I-47, (R)-5-fluoro-3-(((R)-I-methylpyrrolidin-2-yl)methyl)indoline]
Predicted hepatic CL [1]: 2.74 mL/min/kg | Remaining Percentage ([1]; With NADPH, 0 min): 100.00% | Remaining Percentage ([1]; With NADPH, 30 min): 108.74% | Remaining Percentage ([1]; With NADPH, 60 min): 92.73% | Remaining Percentage ([1]; Without NADPH, 0 min): 100.00% | Remaining Percentage ([1]; Without NADPH, 30 min): 102.35% | Remaining Percentage ([1]; Without NADPH, 60 min): 95.13% | CLint scaled at 2 μM [1]: 3.15 mL/min/kg | half-life at 2 μM [1]: 551 min | microsomal CLint at 2 μM [1]: 2.51 µL/min/mg | Predicted hepatic CL [2]: 13.24 mL/min/kg | Remaining Percentage ([2]; With NADPH, 0 min): 100.00% | Remaining Percentage ([2]; With NADPH, 30 min): 114.03% | Remaining Percentage ([2]; With NADPH, 60 min): 89.90% | Remaining Percentage ([2]; Without NADPH, 0 min): 100.00% | Remaining Percentage ([2]; Without NADPH, 30 min): 114.71% | Remaining Percentage ([2]; Without NADPH, 60 min): 87.16% | CLint scaled at 2 μM [2]: 15.5 mL/min/kg | half-life at 2 μM [2]: 391 min | microsomal CLint at 2 μM [2]: 3.55 µL/min/mg | EC50 [3]: 91 nM | 5-HT2A (FLIPR) RFU@10 μM [3]: 787 RFU | Predicted hepatic CL [4]: 45.31 mL/min/kg | Remaining Percentage ([4]; With NADPH, 0 min): 100.00% | Remaining Percentage ([4]; With NADPH, 30 min): 5.12% | Remaining Percentage ([4]; With NADPH, 60 min): 1.45% | Remaining Percentage ([4]; Without NADPH, 0 min): 100.00% | Remaining Percentage ([4]; Without NADPH, 30 min): 108.30% | Remaining Percentage ([4]; Without NADPH, 60 min): 100.00% | CLint scaled at 2 μM [4]: 253 mL/min/kg | half-life at 2 μM [4]: 9.82 min | microsomal CLint at 2 μM [4]: 141 µL/min/mg

COc1ccc2c(c1)C(C[C@H]1CCCN1C)CN2 (stereo partly drawn) [(R)-I-54]
head twitch response (mean head twitches over 1 hr) (Male, C57BL/6J mice; 1 mg/kg SC): 0.7 | head twitch response (mean head twitches over 1 hr) (Male, C57BL/6J mice; 3 mg/kg SC): 0.2 | head twitch response (mean head twitches over 1 hr) (Male, C57BL/6J mice; 10 mg/kg SC): 1.2 | head twitch response (mean head twitches over 1 hr) (Male, C57BL/6J mice; 30 mg/kg SC): 1.8 | head twitch response (mean head twitches over 1 hr) (Male, C57BL/6J mice; 60 mg/kg SC): 0.8 | dose of peak head twitch response (Male, C57BL/6J mice; SC): 30 mg/kg | head twitch response over the dose range tested (Male, C57BL/6J mice; SC, psilocybin 0.1-10, 5-MeO DMT 1-30, (R)-I-54 1-60 mg/kg): only a modest head twitch response | Predicted hepatic CL [1]: 13.52 mL/min/kg | Remaining Percentage ([1]; With NADPH, 0 min): 100.00% | Remaining Percentage ([1]; With NADPH, 30 min): 66.49% | Remaining Percentage ([1]; With NADPH, 60 min): 39.38% | Remaining Percentage ([1]; Without NADPH, 0 min): 100.00% | Remaining Percentage ([1]; Without NADPH, 30 min): 116.22% | Remaining Percentage ([1]; Without NADPH, 60 min): 93.51% | CLint scaled at 2 μM [1]: 39 mL/min/kg | half-life at 2 μM [1]: 44.6 min | microsomal CLint at 2 μM [1]: 31.1 µL/min/mg | Predicted hepatic CL [2]: 70.39 mL/min/kg | Remaining Percentage ([2]; With NADPH, 0 min): 100.00% | Remaining Percentage ([2]; With NADPH, 30 min): 34.74% | Remaining Percentage ([2]; With NADPH, 60 min): 10.91% | Remaining Percentage ([2]; Without NADPH, 0 min): 100.00% | Remaining Percentage ([2]; Without NADPH, 30 min): 98.80% | Remaining Percentage ([2]; Without NADPH, 60 min): 91.62% | CLint scaled at 2 μM [2]: 323 mL/min/kg | half-life at 2 μM [2]: 18.8 min | microsomal CLint at 2 μM [2]: 73.8 µL/min/mg | EC50 [3]: 17 nM and 25 nM | 5-HT2A (FLIPR) RFU@10 μM [3]: 993 RFU and 990 RFU | Predicted hepatic CL [4]: 49.19 mL/min/kg | Remaining Percentage ([4]; With NADPH, 0 min): 100.00% | Remaining Percentage ([4]; With NADPH, 30 min): 2.28% | Remaining Percentage ([4]; With NADPH, 60 min): 0.48% | Remaining Percentage ([4]; Without NADPH, 0 min): 100.00% | Remaining Percentage ([4]; Without NADPH, 30 min): 103.93% | Remaining Percentage ([4]; Without NADPH, 60 min): 97.75% | CLint scaled at 2 μM [4]: 452 mL/min/kg | half-life at 2 μM [4]: 5.5 min | microsomal CLint at 2 μM [4]: 252 µL/min/mg
